# Test results from patent US9096832B2, “Differentiation of human embryonic stem cells” (LifeScan, Inc., priority 2007, dated 2015).
# System: H9 embryonic stem cells
# Experiment: Microarray analysis of definitive endoderm stage cells on […] or MEFs +/- Wnt-3a (Table VI)
# Type: cell-based, human
# Details: low serum, on MEFS
# Method: Controls for each group included cells plated on [sequence]—coated dishes and cultured in MEF-conditioned medium or cells plated on MEFs and cultured in ES medium. All groups contained three biological replicates and each biological replicate was repeated on two separate gene chips.
# Sample preparation, hybridization, and image analysis were performed according to the Affymetrix Human Genome U133 Plus 2.0 Array. Following normalization and a log transformation, data analysis was performed using OmniViz® software (MA) and [sequence] […] Significant differences in gene expression between the samples were evaluated using analysis of variance and an F-test with adjusted P-value (Benjamini and Hochberg correction) of less-than or equal to 0.05. Only genes with a present call in at least one group were included in the analysis.
substance,measurement,setting,value
"Activin A: activin A (a member of the TGFβ superfamily), R&D Systems; 'w/o wnt' in Table VII = 100 ng/ml Activin A without Wnt3a","Intensity (log): Homo sapiens haptoglobin-related protein (HPR), mRNA",,−1.196
same,"Intensity (log): Homo sapiens homeobox protein goosecoid mRNA, complete cds",,1.894
same,"Intensity (log): Homo sapiens hypothetical protein FLJ10718 (FLJ10718), mRNA",,5.552
same,"Intensity (log): Homo sapiens hypothetical protein FLJ10970 (FLJ10970), mRNA",,3.02
same,"Intensity (log): Homo sapiens hypothetical protein FLJ11316 (FLJ11316), mRNA",,0.7553
same,"Intensity (log): Homo sapiens hypothetical protein FLJ22252 similar to SRY-box containing gene 17 (FLJ22252), mRNA",,4.5979
same,"Intensity (log): Homo sapiens lumican (LUM), mRNA",,0.9488
same,"Intensity (log): Homo sapiens mRNA for GATA-6, complete cds",,5.343
same,"Intensity (log): Homo sapiens mRNA for KIAA1409 protein, partial cds",,−1.032
same,Intensity (log): Homo sapiens mRNA; cDNA DKFZp434D0818 (from clone DKFZp434D0818),,−0.3056
same,Intensity (log): Homo sapiens mRNA; cDNA DKFZp586J0624 (from clone DKFZp586J0624); complete cds,,3.699
same,"Intensity (log): Homo sapiens presenilin stabilization factor b (PSF) mRNA, complete cds; alternatively spliced",,0.5675
same,"Intensity (log): Homo sapiens reserved (KCNK12), mRNA",,3.78
same,"Intensity (log): Homo sapiens retinoid X receptor, gamma (RXRG), mRNA",,−0.3204
same,"Intensity (log): Homo sapiens sema domain, immunoglobulin domain (Ig), short basic domain, secreted, (semaphorin) 3E (SEMA3E), mRNA",,1.276
same,"Intensity (log): Homo sapiens sema domain, seven thrombospondin repeats (type 1 and type 1-like), transmembrane domain (TM) and short cytoplasmic domain, (semaphorin) 5A (SEMA5A), mRNA",,1.487
same,"Intensity (log): Homo sapiens solute carrier family 21 (prostaglandin transporter), member 2 (SLC21A2), mRNA",,2.433
same,"Intensity (log): Homo sapiens type VI collagen alpha 2 chain precursor (COL6A2) mRNA, complete cds, alternatively spliced",,2.845
same,"Intensity (log): Homo sapiens, alpha-1 (VI) collagen",,−2.269
same,"Intensity (log): Homo sapiens, clone MGC: 4655, mRNA, complete cds",,2.476
same,"Intensity (log): Human (clone 8B1) Br-cadherin mRNA, complete cds",,−1.026
same,"Intensity (log): Human (clone HSY3RR) neuropeptide Y receptor (NPYR) mRNA, complete cds",,5.48
same,"Intensity (log): Human DNA sequence from clone RP1-181C24 on chromosome 6p11.1-12.2. Contains the 3 end of the BMP5 gene for bone morphogenetic protein 5, ESTs, STSs and GSSs",,−0.3731
same,"Intensity (log): Human Fritz mRNA, complete cds",,3.915
same,"Intensity (log): Human dipeptidyl peptidase IV (CD26) mRNA, complete cds",,−1.256
same,"Intensity (log): Human glycophorin HeP2 mRNA, partial cds",,0.2335
same,"Intensity (log): Human link protein mRNA, complete cds",,−1.263
same,Intensity (log): Human mRNA for alpha-1 type II collagen,,−0.3802
same,Intensity (log): Human mRNA for apolipoprotein AI (apo AI),,2.497
same,"Intensity (log): Human prostatic secretory protein 57 mRNA, complete cds",,−0.4077
same,Intensity (log): KIAA1462 protein,,0.4371
same,"Intensity (log): MCP-1 = monocyte chemotactic protein (human, aortic endothelial cells, mRNA, 661 nt)",,2.955
same,Intensity (log): Rho GDP dissociation inhibitor (GDI) alpha,,−2.582
same,"Intensity (log): WAS protein family, member 2",,−1.06
same,"Intensity (log): collagen, type IX, alpha 2",,2.935
same,"Intensity (log): collagen, type VI, alpha 1",,0.6042
same,"Intensity (log): hepatocyte nuclear factor 4, alpha",,0.4452
same,Intensity (log): homeo box HB9,,1.631
same,Intensity (log): hypothetical protein FLJ21032,,2.618
same,Intensity (log): hypothetical protein FLJ23091,,3.78
same,Intensity (log): microfibrillar-associated protein 4,,−0.6009
same,"Intensity (log): myristoylated alanine-rich protein kinase C substrate (MARCKS, 80K-L)",,0.3357
same,Intensity (log): neuropilin 1,,−1.9667
same,Intensity (log): noggin,,1.33
same,"Intensity (log): splicing factor, arginine serine-rich 5",,4.272
same,Intensity (log): stanniocalcin 1,,6.143
same,Intensity (log): ESTs,r13,−4.27
same,Intensity (log): ESTs,r16,−2.6475
same,"Intensity (log): solute carrier family 16 (monocarboxylic acid transporters), member 3",r20,0.279
same,"Intensity (log): Homo sapiens solute carrier family 16 (monocarboxylic acid transporters), member 3 (SLC16A3), mRNA",r30,1.724
same,Intensity (log): ESTs,r49,0.967
same,Intensity (log): glycophorin B (includes Ss blood group),r50,−0.1297
same,Intensity (log): ESTs,r62,−0.2374
same,"Intensity (log): Homo sapiens HNF-3beta mRNA for hepatocyte nuclear factor-3 beta, complete cds",r66,2.825
same,Intensity (log): ESTs,r81,−2.321
same,Intensity (log): ESTs,r92,0.926
same,Intensity (log): ESTs,r98,−2.206
same,Intensity (log): ESTs,r108,−1.825
same,"Intensity (log): Homo sapiens phorbolin-like protein MDS019 (MDS019), mRNA",r121,2.408
same,Intensity (log): ESTs,r129,0.4204
same,Intensity (log): ESTs,r136,3.522
same,Intensity (log): ESTs,r137,0.761
same,Intensity (log): ESTs,r142,1.433
same,Intensity (log): ESTs,r145,1.0501
same,"Intensity (log): Cluster Incl. AB028021: Homo sapiens HNF-3beta mRNA for hepatocyte nuclear factor-3 beta, complete cds",r165,4.117
same,Intensity (log): hypothetical protein FLJ23403,r205,−2.313
same,Intensity (log): matrix metalloproteinase 14 (membrane-inserted),r215,−0.5185
same,"Intensity (log): Homo sapiens glycophorin B (includes Ss blood group) (GYPB), mRNA",r218,0.1803
same,Intensity (log): ESTs,r234,3.913
same,Intensity (log): ESTs,r240,3.125
same,Intensity (log): ESTs,r241,−0.5703
same,Intensity (log): KIAA0878 protein,r250,4.789
same,Intensity (log): ESTs,r260,4.814
same,"Intensity (log): Homo sapiens matrix metalloproteinase 14 (membrane-inserted) (MMP14), mRNA",r270,−0.09689
same,Intensity (log): ESTs,r278,0.6202
same,Intensity (log): ESTs,r290,2.657
same,Intensity (log): ESTs,r301,3.372
same,Intensity (log): ESTs,r314,−0.2982
same,"Intensity (log): Homo sapiens hypothetical protein FLJ23403 (FLJ23403), mRNA",r315,−1.004
same,Intensity (log): ESTs,r319,−0.1895
same,"Intensity (log): Homo sapiens KIAA0878 protein (KIAA0878), mRNA",r332,5.654
same,Intensity (log): phorbolin-like protein MDS019,r340,0.5035
same,Intensity (log): ESTs,r347,3.749
same,Intensity (log): ESTs,r376,0.8249
same,Intensity (log): ESTs,r377,−1.364
